Laboratory results published in patent EP2359816B1, “Aripiprazole formulations” (Arven Ilac Sanayi ve Ticaret A.S., priority 2010, dated 2011).

Assay: physchem
Type: physicochemical
Excerpt: The following results were obtained in our solubility study of aripiprazole monohydrate.

With O=C1CCc2ccc(OCCCCN3CCN(c4cccc(Cl)c4Cl)CC3)cc2N1 [aripiprazole monohydrate, 7-[4-[4-(2,3-dichlorophenyl)-1-piperazinyl]butoxy]-3,4-dihydrocarbostyril] as the compound, how does the dissolved (pH 1.2 (0.1 N NCl)) read?
Its dissolved is 25 mg per 250 mL.

What about the dissolved (pH 1.2 (USP buffer)) of the same compound?
Its dissolved is 9.75 mg per 250 mL.

And the “Cmax (mg/250 mL) (Aripiprazole)” value (pH 4.5)?
The value was 8.25 mg/250 mL.

What about the dissolved (pH 4.5) of the same compound?
Its dissolved is 8.25 mg per 250 mL.

And the solubility (pH 4.5, aqueous buffer, Maximum Solubility (Cmax mg/mL))?
The solubility was 33 µg/mL.

What about the “Cmax (mg/250 mL) (Aripiprazole)” value (pH 6.8) of the same compound?
Its value is 0 mg/250 mL.

What about the “Maximum Solubility (Cmax mg/mL)” value (pH 6.8) of the same compound?
Its value is 0 mg/mL.

What about the dissolved (pH 6.8) of the same compound?
The dissolved was “not dissolved”.
